The supplement of paper PMC10307832

What was measured:
Assay in all cases: relative viability (nuclei count vs DMSO), 5 days (fraction); higher = more cells survive
Bleomycin + OSI-027 = compound: CC1=C(N=C(N=C1N)[C@H](CC(=O)N)NC[C@@H](C(=O)N)N)C(=O)N[C@@H]([C@H](C2=CN=CN2)OC3C(C(C(C(O3)CO)O)O)OC4C(C(C(C(O4)CO)O)OC(=O)N)O)C(=O)N[C@H](C)[C@H]([C@H](C)C(=O)N[C@@H]([C@@H](C)O)C(=O)NCCC5=NC(=CS5)C6=NC(=CS6)C(=O)NCCC[S+](C)C)O [Bleomycin] + COc1cccc2cc(-c3nc([C@H]4CC[C@H](C(=O)O)CC4)n4ncnc(N)c34)[nH]c12 [OSI-027] (partner 0.5 µM); conditions: main component drawn
Summary of the method: (§1)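 Lung cancer cell lines, seeded in 1536-well plates, were treated the following day by pin tool with a single drug or with five library-drug doses (not always all listed) in √10 steps on top of a fixed anchor-drug dose. Cells were fixed and nuclei stained in one step after 5 days, and nuclei were counted. Relative viability is the nuclei count for treated wells divided by that for vehicle wells, reported as medians of duplicate plates.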

Bleomycin + Linsitinib = compound: CC1=C(N=C(N=C1N)[C@H](CC(=O)N)NC[C@@H](C(=O)N)N)C(=O)N[C@@H]([C@H](C2=CN=CN2)OC3C(C(C(C(O3)CO)O)O)OC4C(C(C(C(O4)CO)O)OC(=O)N)O)C(=O)N[C@H](C)[C@H]([C@H](C)C(=O)N[C@@H]([C@@H](C)O)C(=O)NCCC5=NC(=CS5)C6=NC(=CS6)C(=O)NCCC[S+](C)C)O [Bleomycin] + C[C@]1(O)C[C@@H](c2nc(-c3ccc4ccc(-c5ccccc5)nc4c3)c3c(N)nccn32)C1 [Linsitinib] (partner 1 µM); conditions: main component drawn
Summary of the method: as §1

Bleomycin + Phenformin = compound: CC1=C(N=C(N=C1N)[C@H](CC(=O)N)NC[C@@H](C(=O)N)N)C(=O)N[C@@H]([C@H](C2=CN=CN2)OC3C(C(C(C(O3)CO)O)O)OC4C(C(C(C(O4)CO)O)OC(=O)N)O)C(=O)N[C@H](C)[C@H]([C@H](C)C(=O)N[C@@H]([C@@H](C)O)C(=O)NCCC5=NC(=CS5)C6=NC(=CS6)C(=O)NCCC[S+](C)C)O [Bleomycin] + N=C(N)NC(=N)NCCc1ccccc1 [Phenformin] (partner 250 µM); conditions: main component drawn
Summary of the method: as §1

Etoposide + Luminespib = compound: COc1cc([C@@H]2c3cc4c(cc3[C@@H](O[C@@H]3O[C@@H]5CO[C@@H](C)O[C@H]5[C@H](O)[C@H]3O)[C@H]3COC(=O)[C@H]23)OCO4)cc(OC)c1O [Etoposide] + CCNC(=O)c1noc(-c2cc(C(C)C)c(O)cc2O)c1-c1ccc(CN2CCOCC2)cc1 [Luminespib] (partner 0.01 µM)
Summary of the method: as §1

Cell Line | relative viability (Bleomycin + OSI-027; first compound 0.01 µM) | relative viability (Bleomycin + OSI-027; first compound 0.03162 µM) | relative viability (Bleomycin + OSI-027; first compound 0.1 µM) | relative viability (Bleomycin + OSI-027; first compound 0.3162 µM) | relative viability (Bleomycin + OSI-027; first compound 1 µM) | relative viability (Bleomycin + Linsitinib; first compound 0.01 µM) | relative viability (Bleomycin + Linsitinib; first compound 0.03162 µM) | relative viability (Bleomycin + Linsitinib; first compound 0.1 µM) | relative viability (Bleomycin + Linsitinib; first compound 0.3162 µM) | relative viability (Bleomycin + Linsitinib; first compound 1 µM) | relative viability (Bleomycin + Phenformin; first compound 0.01 µM) | relative viability (Bleomycin + Phenformin; first compound 0.03162 µM) | relative viability (Bleomycin + Phenformin; first compound 0.1 µM) | relative viability (Bleomycin + Phenformin; first compound 0.3162 µM) | relative viability (Bleomycin + Phenformin; first compound 1 µM) | relative viability (Etoposide + Luminespib; first compound 0.01 µM) | relative viability (Etoposide + Luminespib; first compound 0.03162 µM) | relative viability (Etoposide + Luminespib; first compound 0.1 µM) | relative viability (Etoposide + Luminespib; first compound 0.3162 µM) | relative viability (Etoposide + Luminespib; first compound 1 µM)
EKVX | 0.636 | 0.711 | 0.598 | 0.398 | 0.387 | 0.909 | 0.822 | 0.859 | 0.375 | 0.336 | 0.234 | 0.255 | 0.196 | 0.2 | 0.157 | 0.921 | 0.885 | 0.444 | 0.658 | 0.307
NCI-H2126 | 0.644 | 0.774 | 0.738 | 0.522 | 0.585 | 0.641 | 0.756 | 0.687 | 0.645 | 0.546 | 0.55 | 0.536 | 0.559 | 0.349 | 0.303 | 0.927 | 0.877 | 0.545 | 0.622 | 0.33
LK-2 | 0.192 | 0.202 | 0.177 | 0.167 | 0.162 | 0.418 | 0.373 | 0.318 | 0.198 | 0.255 | 0.289 | 0.281 | 0.304 | 0.23 | 0.16 | 0.206 | 0.181 | 0.154 | 0.195 | 0.159
NCI-H1437 | 0.76 | 0.848 | 0.748 | 0.522 | 0.368 | 0.88 | 0.936 | 0.85 | 0.417 | 0.357 | 0.248 | 0.283 | 0.287 | 0.229 | 0.212 | 1.1 | 1.07 | 1.14 | 0.7 | 0.509
COR-L23 | 0.566 | 0.696 | 0.415 | 0.139 | 0.122 | 0.696 | 0.559 | 0.307 | 0.106 | 0.102 | 0.316 | 0.292 | 0.219 | 0.123 | 0.123 | 0.573 | 0.802 | 0.536 | 0.214 | 0.153
ABC-1 | 0.394 | 0.428 | 0.388 | 0.18 | 0.212 | 0.938 | 0.647 | 0.63 | 0.355 | 0.248 | 0.241 | 0.234 | 0.258 | 0.239 | 0.199 | 0.35 | 0.648 | 0.33 | 0.351 | 0.29
SW 900 | 0.428 | 0.336 | 0.425 | 0.15 | 0.134 | – | – | – | – | – | 0.592 | 0.447 | 0.335 | 0.11 | 0.16 | 0.185 | 0.21 | 0.168 | 0.175 | 0.153
PC-14 | 0.439 | 0.435 | 0.114 | 0.0634 | 0.0557 | 0.578 | 0.51 | 0.309 | 0.118 | 0.119 | 0.433 | 0.341 | 0.197 | 0.0557 | 0.0309 | 0.112 | 0.172 | 0.143 | 0.138 | 0.151
NCI-H1648 | 0.274 | – | 0.257 | 0.246 | 0.274 | – | – | – | – | – | – | – | – | – | – | – | – | – | – | –
A549 | – | – | – | – | – | 0.514 | 0.472 | 0.384 | 0.0789 | 0.0779 | 0.143 | 0.139 | 0.444 | 0.0518 | 0.0392 | – | – | – | – | –
A-427 | 0.332 | 0.439 | 0.34 | 0.187 | 0.144 | 0.999 | 1.08 | 1.05 | 0.893 | 0.266 | 0.253 | 0.349 | 0.269 | 0.175 | 0.113 | 0.832 | 1.02 | 0.61 | 0.382 | 0.182
NCI-H1703 | – | – | – | – | – | 1.06 | 0.639 | 0.517 | 0.321 | 0.19 | – | – | – | – | – | – | – | – | – | –
ChaGo-K-1 | 0.46 | 0.536 | 0.5 | 0.302 | 0.179 | – | – | – | – | – | 0.383 | 0.39 | 0.384 | 0.297 | 0.217 | 0.467 | 0.473 | 0.38 | 0.211 | 0.229
Calu-6 | – | – | – | – | – | 0.741 | 0.6 | 0.508 | 0.174 | 0.125 | – | – | – | – | – | – | – | – | – | –
HCC-366 | 0.675 | 0.643 | 0.471 | 0.122 | 0.119 | 0.29 | 0.229 | 0.171 | 0.0412 | 0.0312 | 0.455 | 0.618 | 0.423 | 0.159 | 0.0675 | – | – | – | – | –
NCI-H2342 | 0.676 | 0.634 | 0.598 | 0.507 | 0.511 | – | – | – | – | – | 0.552 | 0.707 | 0.626 | 0.441 | 0.528 | 0.622 | 0.728 | 0.425 | 0.352 | 0.29
EBC-1 | – | – | – | – | – | 0.829 | 0.72 | 0.78 | 0.698 | 0.366 | – | – | – | – | – | – | – | – | – | –
NCI-H1299 | – | – | – | – | – | 0.879 | 0.978 | 0.854 | 0.481 | 0.245 | – | – | – | – | – | – | – | – | – | –
NCI-H522 | 0.662 | 0.619 | 0.593 | 0.419 | 0.432 | – | – | – | – | – | 0.561 | 0.585 | 0.493 | 0.363 | 0.416 | 1.03 | 0.988 | 0.866 | 0.907 | 0.601
IA-LM | – | – | – | – | – | 0.588 | 0.476 | 0.344 | 0.293 | 0.246 | – | – | – | – | – | – | – | – | – | –
NCI-H2170 | 0.598 | 0.764 | 0.767 | 0.52 | 0.395 | – | – | – | – | – | 0.415 | 0.426 | 0.422 | 0.374 | 0.338 | 0.714 | 0.874 | 0.273 | 0.585 | 0.452
